Data taken from patent publication US20220356174A1, “PYRIDIN-2-ONE COMPOUNDS USEFUL AS SMARCA2 ANTAGONISTS” (Epizyme, Inc., priority 2018, published 2022).
Read-outs that look alike come from different tables or passages of the source.

Legend:
[1] = biological target: T1, FL-SMARCA2 (full-length human SMARCA2 isoform 1) (Homo sapiens, UniProt P51531); assay: SMARCA2 ATPase activity assay (ADP-Glo, chicken mononucleosome substrate); assay type: biochemical; settings: ATP 250 uM
T1 construct: FLAG tag (YKDDDDK) (C); made in house; host or cells: Sf21 insect cells (baculovirus, pFastBacI)

FL-SMARCA4 = FL-SMARCA4 (Homo sapiens, UniProt P51532); assay: SMARCA4 ATPase activity assay (ADP-Glo, chicken mononucleosome substrate)
[2] = Table 3.1, ATPase assay, enzyme 5 nM, chicken mononucleosome 10 nM, 30 min preincubation
[3] = FL-SMARCA4 IC50, Table 3.2, ATPase assay, enzyme 5 nM, ATP 250 uM, chicken mononucleosome 10 nM, 30 min preincubation
[4] = Table 3d.1, ATPase assay, enzyme 5 nM, chicken mononucleosome 10 nM, 30 min preincubation, read-out: FL-SMARCA2 IC>50
[5] = Table 3b.1, SMARCA2 5 nM, mononucleosome 10 nM
[6] = FL-SMARCA4 IC50, Table 3b.2, SMARCA4 5 nM, ATP 250 uM, mononucleosome 10 nM
[7] = Table 3c.1, ATPase assay, enzyme 5 nM, chicken mononucleosome 10 nM, 30 min preincubation
[8] = FL-SMARCA4 IC>50, Table 3c.2, ATPase assay, enzyme 5 nM, ATP 250 uM, chicken mononucleosome 10 nM, 30 min preincubation
[9] = Table 3a.1, SMARCA2 5 nM, mononucleosome 10 nM
[10] = FL-SMARCA4 IC50, Table 3a.2, SMARCA4 5 nM, ATP 250 uM, mononucleosome 10 nM

Chain of FL-SMARCA4 (P51532 whole entry): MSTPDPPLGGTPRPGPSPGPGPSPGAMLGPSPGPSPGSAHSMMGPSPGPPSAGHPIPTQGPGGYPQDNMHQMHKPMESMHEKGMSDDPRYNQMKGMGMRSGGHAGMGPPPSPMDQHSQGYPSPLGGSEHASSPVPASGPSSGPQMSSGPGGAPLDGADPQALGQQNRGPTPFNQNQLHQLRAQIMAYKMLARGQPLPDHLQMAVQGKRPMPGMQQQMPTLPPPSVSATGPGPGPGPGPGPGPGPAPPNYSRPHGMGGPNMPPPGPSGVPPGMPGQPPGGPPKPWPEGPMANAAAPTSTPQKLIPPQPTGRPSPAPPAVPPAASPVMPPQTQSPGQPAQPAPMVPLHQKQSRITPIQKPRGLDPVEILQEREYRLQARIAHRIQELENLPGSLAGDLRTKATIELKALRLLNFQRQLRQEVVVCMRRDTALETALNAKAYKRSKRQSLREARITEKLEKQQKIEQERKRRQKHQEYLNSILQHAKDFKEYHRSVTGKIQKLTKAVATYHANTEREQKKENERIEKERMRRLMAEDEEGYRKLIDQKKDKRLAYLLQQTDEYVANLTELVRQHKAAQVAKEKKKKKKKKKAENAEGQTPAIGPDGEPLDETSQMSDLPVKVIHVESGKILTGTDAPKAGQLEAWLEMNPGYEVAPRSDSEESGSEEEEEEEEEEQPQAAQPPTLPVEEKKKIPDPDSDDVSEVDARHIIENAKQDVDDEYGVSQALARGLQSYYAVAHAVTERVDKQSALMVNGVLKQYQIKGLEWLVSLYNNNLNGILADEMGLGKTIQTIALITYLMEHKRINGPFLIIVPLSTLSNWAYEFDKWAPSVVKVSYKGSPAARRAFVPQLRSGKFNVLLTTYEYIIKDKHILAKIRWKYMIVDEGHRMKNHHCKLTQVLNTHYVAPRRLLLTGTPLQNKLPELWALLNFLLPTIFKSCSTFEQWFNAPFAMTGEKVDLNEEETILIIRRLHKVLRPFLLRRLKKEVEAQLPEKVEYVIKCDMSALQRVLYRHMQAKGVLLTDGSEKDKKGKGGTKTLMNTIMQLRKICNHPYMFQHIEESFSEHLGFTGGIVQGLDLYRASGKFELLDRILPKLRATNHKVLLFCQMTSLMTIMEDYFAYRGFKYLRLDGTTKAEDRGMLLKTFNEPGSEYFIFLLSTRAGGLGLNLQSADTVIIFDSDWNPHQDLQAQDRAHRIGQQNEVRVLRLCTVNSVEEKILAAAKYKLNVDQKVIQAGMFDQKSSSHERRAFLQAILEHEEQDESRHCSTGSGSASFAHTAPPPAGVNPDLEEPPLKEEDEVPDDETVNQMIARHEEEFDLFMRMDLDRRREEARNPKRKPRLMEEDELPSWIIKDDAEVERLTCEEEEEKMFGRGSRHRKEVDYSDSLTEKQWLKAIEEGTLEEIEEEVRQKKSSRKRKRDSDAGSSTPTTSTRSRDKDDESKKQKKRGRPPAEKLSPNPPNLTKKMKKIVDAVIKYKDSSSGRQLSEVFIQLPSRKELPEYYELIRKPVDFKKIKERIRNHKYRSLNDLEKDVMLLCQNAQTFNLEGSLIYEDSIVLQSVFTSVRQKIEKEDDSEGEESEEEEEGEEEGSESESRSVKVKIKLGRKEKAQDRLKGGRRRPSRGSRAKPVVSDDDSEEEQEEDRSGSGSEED
T1 sequence (P51531 with tags, fused parts or gaps): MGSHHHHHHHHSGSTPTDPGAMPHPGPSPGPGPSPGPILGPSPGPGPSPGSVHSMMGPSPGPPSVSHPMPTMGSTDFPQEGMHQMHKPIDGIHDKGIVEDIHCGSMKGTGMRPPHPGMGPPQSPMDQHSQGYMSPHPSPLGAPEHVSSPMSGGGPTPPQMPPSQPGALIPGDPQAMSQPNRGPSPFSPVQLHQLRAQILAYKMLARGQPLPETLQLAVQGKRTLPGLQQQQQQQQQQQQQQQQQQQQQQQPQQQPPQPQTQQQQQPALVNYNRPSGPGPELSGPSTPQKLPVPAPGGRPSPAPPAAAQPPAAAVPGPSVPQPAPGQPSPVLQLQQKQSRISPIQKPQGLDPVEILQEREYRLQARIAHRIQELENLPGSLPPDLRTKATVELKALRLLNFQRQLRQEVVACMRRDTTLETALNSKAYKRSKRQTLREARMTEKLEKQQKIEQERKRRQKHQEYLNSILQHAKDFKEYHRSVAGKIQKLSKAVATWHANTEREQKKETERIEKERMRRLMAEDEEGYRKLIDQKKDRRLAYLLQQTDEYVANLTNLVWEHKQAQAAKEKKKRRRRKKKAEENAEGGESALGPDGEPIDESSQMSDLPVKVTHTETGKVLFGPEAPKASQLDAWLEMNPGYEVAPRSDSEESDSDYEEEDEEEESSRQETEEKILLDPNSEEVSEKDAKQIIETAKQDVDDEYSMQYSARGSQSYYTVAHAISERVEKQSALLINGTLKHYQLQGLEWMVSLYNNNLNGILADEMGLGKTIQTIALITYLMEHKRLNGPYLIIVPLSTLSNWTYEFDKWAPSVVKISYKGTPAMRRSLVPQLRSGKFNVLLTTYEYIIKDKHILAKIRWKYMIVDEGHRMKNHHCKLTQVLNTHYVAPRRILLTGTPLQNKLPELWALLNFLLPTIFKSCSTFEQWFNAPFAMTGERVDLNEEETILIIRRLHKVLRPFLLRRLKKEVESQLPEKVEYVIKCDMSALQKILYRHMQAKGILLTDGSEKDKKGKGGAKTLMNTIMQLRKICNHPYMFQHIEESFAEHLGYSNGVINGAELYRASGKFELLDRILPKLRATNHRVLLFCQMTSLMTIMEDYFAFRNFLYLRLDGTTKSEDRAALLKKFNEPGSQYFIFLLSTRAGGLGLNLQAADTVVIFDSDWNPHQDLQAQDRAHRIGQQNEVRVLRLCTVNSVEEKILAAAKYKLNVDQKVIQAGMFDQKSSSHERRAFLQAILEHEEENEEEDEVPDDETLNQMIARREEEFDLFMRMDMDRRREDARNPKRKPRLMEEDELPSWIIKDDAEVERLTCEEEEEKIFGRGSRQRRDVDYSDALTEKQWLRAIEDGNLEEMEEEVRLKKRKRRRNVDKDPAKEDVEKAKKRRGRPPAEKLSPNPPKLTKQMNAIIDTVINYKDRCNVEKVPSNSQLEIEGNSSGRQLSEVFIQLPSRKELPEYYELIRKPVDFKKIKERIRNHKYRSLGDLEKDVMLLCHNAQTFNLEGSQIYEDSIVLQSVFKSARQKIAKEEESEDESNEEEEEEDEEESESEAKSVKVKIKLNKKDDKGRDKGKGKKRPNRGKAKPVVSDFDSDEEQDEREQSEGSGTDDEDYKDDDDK

IC50 [1, 2]	IC50 (FL-SMARCA4; [3])	other results	Compound
> 50 µM	> 50 µM	–	O=C(Nc1cc(F)c(=O)n(CCF)c1)c1cnc(-n2ccnc2C(F)(F)F)s1 [Compound 281]
–	–	IC50 [1, 4]: > 50 µM; IC50 (FL-SMARCA4; FL-SMARCA4 IC50): > 50 µM	O=C(Nc1cc(F)c(=O)n(CC(F)F)c1)c1sc(Cl)c(Cl)c1O [Compound 49d]
0.365 µM	0.669 µM	–	CCn1cc(NC(=O)c2cc(Cl)c(C#N)s2)ccc1=O [Compound 86]
> 50 µM	> 50 µM	–	CCn1cc(NC(=O)c2nnc(C)s2)ccc1=O [Compound 78]
> 50 µM	> 50 µM	–	CN(C)CCn1cc(NC(=O)c2cc(Cl)c(Cl)n2C)ccc1=O [Compound 89]
–	–	IC50 [1, 5]: > 50 µM; IC50 (FL-SMARCA4; [6]): > 50 µM	CCn1cc(NC(=O)c2ccc(Cl)cc2)ccc1=O [Compound 7b]
–	–	IC50 [1, 7]: 0.173 µM; IC50 (FL-SMARCA4; [8]): 0.219 µM	O=C(Nc1cc(F)c(=O)n(CC(F)F)c1)c1cc(C#Cc2ccncc2)cs1 [Compound 23c]
> 50 µM	> 50 µM	–	O=C(Nc1cc(F)c(=O)n(CCF)c1)c1ccc(C(F)(F)CO)s1 [Compound 322]
> 50 µM	> 50 µM	–	CCn1cc(NC(=O)c2cc(-c3cn(C)cn3)c(Cl)s2)ccc1=O [Compound 280]
> 50 µM	> 50 µM	–	CCn1cc(NC(=O)c2cc(Cl)c(Cl)n2C2CC2)ccc1=O [Compound 62]
48.3 µM	45.3 µM	–	COc1ccc(Cn2c(C(=O)Nc3ccc(=O)n(CCF)c3)cc(Cl)c2C#N)cc1 [Compound 200]
> 50 µM	> 50 µM	–	COCCn1cc(NC(=O)c2cc(Cl)c(Cl)s2)ccc1=O [Compound 87]
–	–	IC50 [1, 4]: > 50 µM; IC50 (FL-SMARCA4; FL-SMARCA4 IC50): > 50 µM	Cc1cc(=O)[nH]cc1NC(=O)c1ccc(C(F)(F)F)nc1C [Compound 32d]
0.117 µM	0.387 µM	–	N#Cc1[nH]c(C(=O)Nc2ccc(=O)n(CC(F)F)c2)cc1Cl [Compound 294]
–	–	IC50 [1, 7]: 1.85 µM; IC50 (FL-SMARCA4; [8]): 28.9 µM	O=C(Nc1cc(F)c(=O)n(CC(F)F)c1)c1cc2cc(-c3ccncc3)ccc2s1 [Compound 84c]
> 50 µM	> 50 µM	–	CCn1cc(NC(=O)c2csc(C(N)=O)n2)ccc1=O [Compound 184]
–	–	IC50 [1, 4]: 36.5 µM; IC50 (FL-SMARCA4; FL-SMARCA4 IC50): > 50 µM	CN(C)C(=O)c1cc(C(=O)Nc2cc(F)c(=O)n(CC(F)F)c2)sc1C(F)(F)F [Compound 36d]
0.151 µM	0.562 µM	–	N#Cc1cc(C(=O)Nc2ccc(=O)n(CC(F)F)c2)sc1Cl [Compound 320]
> 50 µM	> 50 µM	–	CCn1cc(NC(=O)c2cc(-c3ccn(C)n3)c(Cl)s2)ccc1=O [Compound 272]
–	–	IC50 [1, 7]: 39.5 µM; IC50 (FL-SMARCA4; [8]): 35.8 µM	O=C(Nc1cc(F)c(=O)n(CC(F)F)c1)C1CCC(C(F)(F)F)O1 (centres unmarked) [Compound 135c]
> 50 µM	> 50 µM	–	CCn1cc(NC(=O)c2ccc(C)n2C(F)F)ccc1=O [Compound 52]
–	–	IC50 [1, 7]: 1.04 µM; IC50 (FL-SMARCA4; [8]): 2.19 µM	COc1ccc(C#Cc2cc(C(=O)Nc3cc(F)c(=O)n(CC(F)F)c3)sc2Cl)cc1 [Compound 44c]
24 µM	> 50 µM	–	C/C=C/c1cc(C(=O)Nc2ccc(=O)n(CC)c2)sc1Cl [Compound 279]
29.6 µM	> 50 µM	–	NS(=O)(=O)c1sc(C(=O)Nc2cc(F)c(=O)n(CCF)c2)cc1Cl [Compound 309]
–	–	IC50 [1, 4]: 12.5 µM; IC50 (FL-SMARCA4; FL-SMARCA4 IC50): 15.3 µM	O=C(Nc1ccc(=O)n(CC(F)(F)F)n1)c1cnc(Cl)s1 [Compound 23d]
> 50 µM	> 50 µM	–	O=C(Nc1cc(F)c(=O)n(CCF)c1)c1cnc(NC2CCCC2)s1 [Compound 219]
2.74 µM	5.96 µM	–	CCn1cc(NC(=O)c2cc(C#CCO)c(Cl)s2)ccc1=O [Compound 300]
–	–	IC50 [1, 4]: 1.77 µM; IC50 (FL-SMARCA4; FL-SMARCA4 IC50): 17.9 µM	N#Cc1cc(C(=O)Nc2cc(F)c(=O)n(CC(F)F)c2)sc1C1(F)CC1 [Compound 94d]

IC50 [1, 2]	IC50 (FL-SMARCA4; [3])	other results	Compound
–	–	IC50 [1, 7]: 34.8 µM; IC50 (FL-SMARCA4; [8]): > 50 µM	O=C(Nc1cc(CO)c(=O)n(CC(F)F)c1)c1cc(F)c(Cl)s1 [Compound 12c]
> 50 µM	> 50 µM	–	NS(=O)(=O)c1cc(C(=O)Nc2cc(F)c(=O)n(CCF)c2)sc1Cl [Compound 310]
–	–	IC50 [1, 7]: > 50 µM; IC50 (FL-SMARCA4; [8]): > 50 µM	O=C(Nc1cc(F)c(=O)n(CC(F)F)c1)[C@@H]1CCCN1 [Compound 15c]
–	–	IC50 [1, 9]: > 50 µM; IC50 (FL-SMARCA4; [10]): > 50 µM	CCn1cc(NC(=O)[C@@H]2C[C@H](OC)CN2C)ccc1=O [Compound 3a]
14.1 µM	16.6 µM	–	CCn1cc(NC(=O)c2cc(Cl)c(Cl)s2)cc(NCCOC)c1=O [Compound 113]
0.388 µM	1.47 µM	–	CCn1cc(NC(=O)c2cc(Cl)c(C#N)n2C)cc(F)c1=O [Compound 174]
> 50 µM	> 50 µM	–	CNC(=O)c1cc(C(=O)Nc2cc(F)c(=O)n(CCF)c2)sc1Cl [Compound 291]
19.5 µM	> 50 µM	–	CCn1cc(NC(=O)c2ccc(Cl)n2C)ccc1=O [Compound 18]
–	–	IC50 [1, 7]: 25.4 µM; IC50 (FL-SMARCA4; [8]): 41.4 µM	CN1CCC(C#Cc2cc(C(=O)Nc3cc(F)c(=O)n(CC(F)F)c3)sc2Cl)CC1 [Compound 29c]
16.7 µM	34.7 µM	–	CCn1cc(NC(=O)c2cc(Cl)c(Cl)n2CCF)ccc1=O [Compound 60]
–	–	IC50 [1, 5]: > 50 µM; IC50 (FL-SMARCA4; [6]): > 50 µM	CN(C)C(=O)c1ccc(C(=O)Nc2cc(F)c(=O)n(CCF)c2)cc1 [Compound 21b]
> 50 µM	> 50 µM	–	Cn1nc(C(=O)Nc2cc(F)c(=O)n(CCF)c2)cc1Cl [Compound 230]
> 50 µM	> 50 µM	–	Nc1ncc(C(=O)Nc2cc(F)c(=O)n(CCF)c2)s1 [Compound 224]
17.9 µM	> 50 µM	–	Cn1c(C(=O)Nc2cc(C#N)c(=O)n(CCF)c2)cnc1Cl [Compound 213]
–	–	IC50 [1, 9]: > 50 µM; IC50 (FL-SMARCA4; [10]): > 50 µM	CCn1cc(NC(=O)c2ccccn2)ccc1=O [Compound 30a]
–	–	IC50 [1, 4]: 22.4 µM; IC50 (FL-SMARCA4; FL-SMARCA4 IC50): > 50 µM	O=C(CNCC1CC1)Nc1ccc(=O)n(Cc2ccccc2Cl)c1 [Compound 6d]
12 µM	34.7 µM	–	O=C(Nc1ccc(=O)n(CC(F)(F)F)c1)c1cc(Cl)c(Cl)n1CCF [Compound 85]
–	–	IC50 [1, 9]: > 50 µM; IC50 (FL-SMARCA4; [10]): > 50 µM	CN1CCC(C(=O)Nc2cc(F)c(=O)n(CCF)c2)CC1=O (centres unmarked) [Compound 47a]
> 50 µM	> 50 µM	–	Cn1ccnc1-c1ccc(C(=O)Nc2cc(F)c(=O)n(CCF)c2)s1 [Compound 316]
–	–	IC50 [1, 7]: > 50 µM; IC50 (FL-SMARCA4; [8]): > 50 µM	O=C(Nc1cc(F)c(=O)n(CC(F)F)c1)[C@H]1CCCN1 [Compound 16c]
> 50 µM	> 50 µM	–	CCn1cc(NC(=O)c2cc(Cl)c(Cl)s2)cc(C(C)C)c1=O [Compound 111]
> 50 µM	> 50 µM	–	O=C(Nc1cc(F)c(=O)n(CCF)c1)c1cn(CC(F)(F)F)c(=O)s1 [Compound 277]
0.123 µM	0.632 µM	–	N#Cc1cc(C(=O)Nc2cc(Cl)c(=O)n(CC(F)(F)F)c2)sc1Cl [Compound 208]
–	–	IC50 [1, 4]: > 50 µM; IC50 (FL-SMARCA4; FL-SMARCA4 IC50): > 50 µM	CCc1cc(=O)n(CC)cc1NC(=O)c1cc(Cl)c(Cl)s1 [Compound 28d]
0.602 µM	1.88 µM	–	N#Cc1cc(C(=O)Nc2cc(F)c(=O)n(CCF)c2)[nH]c1Cl [Compound 229]
–	–	IC50 [1, 7]: > 50 µM; IC50 (FL-SMARCA4; [8]): > 50 µM	CNCCCn1cc(NC(=O)c2cc(F)c(Cl)s2)cc(F)c1=O [Compound 53c]
0.147 µM	0.443 µM	–	CCn1cc(NC(=O)c2cnc(Cl)s2)cc(F)c1=O [Compound 130]
